Experimental findings from PMC2997436 (Journal of medicinal chemistry, 2010) are described below.

Experiment [1] has as its target T1, α3β4 nAChR (Rattus norvegicus, UniProt P04757+P12392). The note with it: change in both Kd and Bmax of [3H]epibatidine.
The next experiment deals with rat α4β2 nAChR (Rattus norvegicus, UniProt P09483+P12390). In kind it is binding.
The target in experiment [2] is T1, α3β4 nAChR. In kind it is cell-based.
In the next experiment the target is rat α3β4 nAChR (Rattus norvegicus, UniProt P04757+P12392). Type of experiment: binding.
In the next experiment the target is α4β2 nAChR (Rattus norvegicus, UniProt P09483+P12390). The experiment can be described thus: Functional assay. Type of experiment: cell-based.
For a further experiment, the target named is α7 nAChR (Rattus norvegicus, UniProt Q05941). The experiment can be described thus: biochemical. Type of experiment: binding.
The mark [3] stands for this setting: FLIPR, alone and against epibatidine-induced Ca2+ fluorescence.

The structures appear in SMILES notation. Where two headings read alike, the source gives them in different places.

T1 sequence (P12392 22-495): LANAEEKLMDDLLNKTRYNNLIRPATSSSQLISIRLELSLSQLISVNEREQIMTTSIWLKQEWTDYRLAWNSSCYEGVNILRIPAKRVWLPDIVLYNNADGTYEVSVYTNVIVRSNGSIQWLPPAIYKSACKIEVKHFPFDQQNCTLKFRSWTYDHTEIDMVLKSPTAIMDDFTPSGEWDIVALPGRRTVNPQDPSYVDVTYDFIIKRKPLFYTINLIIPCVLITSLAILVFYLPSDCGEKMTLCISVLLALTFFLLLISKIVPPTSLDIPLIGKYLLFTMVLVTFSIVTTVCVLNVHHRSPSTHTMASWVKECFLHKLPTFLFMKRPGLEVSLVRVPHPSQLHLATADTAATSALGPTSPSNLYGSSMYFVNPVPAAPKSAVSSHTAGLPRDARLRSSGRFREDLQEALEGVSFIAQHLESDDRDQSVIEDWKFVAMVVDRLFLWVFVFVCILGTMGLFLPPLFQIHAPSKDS
T1 sequence (P04757 26-499): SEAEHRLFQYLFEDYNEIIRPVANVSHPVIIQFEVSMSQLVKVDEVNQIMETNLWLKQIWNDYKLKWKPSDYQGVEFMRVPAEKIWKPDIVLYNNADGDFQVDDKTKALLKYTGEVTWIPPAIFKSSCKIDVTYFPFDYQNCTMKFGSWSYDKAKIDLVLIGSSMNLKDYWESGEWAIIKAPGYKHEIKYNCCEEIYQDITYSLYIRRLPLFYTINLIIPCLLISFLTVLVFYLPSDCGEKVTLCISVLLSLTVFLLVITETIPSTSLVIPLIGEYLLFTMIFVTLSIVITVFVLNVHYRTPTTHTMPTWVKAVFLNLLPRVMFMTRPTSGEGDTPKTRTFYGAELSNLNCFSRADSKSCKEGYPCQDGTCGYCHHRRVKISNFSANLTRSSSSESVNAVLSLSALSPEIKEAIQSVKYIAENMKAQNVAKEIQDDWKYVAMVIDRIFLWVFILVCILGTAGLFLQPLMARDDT
Chain of rat α4β2 nAChR (P09483 31-630): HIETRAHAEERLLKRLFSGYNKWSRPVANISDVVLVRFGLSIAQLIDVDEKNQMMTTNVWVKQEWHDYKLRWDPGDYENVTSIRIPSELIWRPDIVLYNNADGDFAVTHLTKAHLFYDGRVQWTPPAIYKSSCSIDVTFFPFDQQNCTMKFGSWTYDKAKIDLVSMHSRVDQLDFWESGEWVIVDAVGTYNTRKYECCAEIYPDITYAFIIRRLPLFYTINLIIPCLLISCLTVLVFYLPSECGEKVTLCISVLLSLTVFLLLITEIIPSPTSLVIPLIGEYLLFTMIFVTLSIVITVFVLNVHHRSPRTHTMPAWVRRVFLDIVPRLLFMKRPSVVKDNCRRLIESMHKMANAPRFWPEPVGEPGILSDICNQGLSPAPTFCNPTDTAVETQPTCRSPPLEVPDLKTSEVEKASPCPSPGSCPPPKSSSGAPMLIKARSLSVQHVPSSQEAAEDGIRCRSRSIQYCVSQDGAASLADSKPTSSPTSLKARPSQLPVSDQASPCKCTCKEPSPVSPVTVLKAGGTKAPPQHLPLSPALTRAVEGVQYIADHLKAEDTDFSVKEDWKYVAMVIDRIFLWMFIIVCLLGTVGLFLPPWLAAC
Chain of rat α4β2 nAChR (P12390 25-500): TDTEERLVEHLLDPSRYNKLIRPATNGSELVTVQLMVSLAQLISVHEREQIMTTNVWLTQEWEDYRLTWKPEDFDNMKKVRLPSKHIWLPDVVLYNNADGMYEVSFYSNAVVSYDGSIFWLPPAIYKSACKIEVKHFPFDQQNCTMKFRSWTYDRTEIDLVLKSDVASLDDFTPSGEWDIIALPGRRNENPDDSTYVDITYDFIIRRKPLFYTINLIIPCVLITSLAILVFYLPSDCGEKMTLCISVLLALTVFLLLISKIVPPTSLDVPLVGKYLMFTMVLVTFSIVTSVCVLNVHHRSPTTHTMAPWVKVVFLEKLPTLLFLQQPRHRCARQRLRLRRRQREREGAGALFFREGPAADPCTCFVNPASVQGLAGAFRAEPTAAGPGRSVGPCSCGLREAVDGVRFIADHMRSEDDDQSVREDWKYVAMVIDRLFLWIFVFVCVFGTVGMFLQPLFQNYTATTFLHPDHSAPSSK
Chain of rat α3β4 nAChR (P04757 26-499): as the sequence (P04757 26-499) above
Chain of rat α3β4 nAChR (P12392 22-495 limits assumed): as the sequence (P12392 22-495) above
Chain of α4β2 nAChR (P09483 31-630): as the sequence (P09483 31-630) above
Chain of α4β2 nAChR (P12390 25-500): as the sequence (P12390 25-500) above
Chain of α7 nAChR (Q05941 23-502): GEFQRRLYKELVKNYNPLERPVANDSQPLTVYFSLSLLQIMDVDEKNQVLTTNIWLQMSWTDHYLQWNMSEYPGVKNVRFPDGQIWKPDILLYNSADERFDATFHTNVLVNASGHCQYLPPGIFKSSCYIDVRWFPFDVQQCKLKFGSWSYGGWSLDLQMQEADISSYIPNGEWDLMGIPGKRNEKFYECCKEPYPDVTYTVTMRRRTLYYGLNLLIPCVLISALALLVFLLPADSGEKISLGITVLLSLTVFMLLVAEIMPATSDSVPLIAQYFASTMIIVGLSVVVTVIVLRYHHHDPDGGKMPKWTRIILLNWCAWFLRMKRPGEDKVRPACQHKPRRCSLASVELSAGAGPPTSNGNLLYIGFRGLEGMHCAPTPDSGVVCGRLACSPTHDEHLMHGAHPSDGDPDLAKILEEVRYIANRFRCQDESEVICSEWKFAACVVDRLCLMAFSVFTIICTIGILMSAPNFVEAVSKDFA

As to `O=c1cccc2n1C[C@@H]1CNC[C@H]2C1` [Cytisine], the “mode of binding with epibatidine at α3β4” value on α3β4 nAChR [1] is recorded as “noncompetitively”.
Regarding `O=C1Cc2ccccc2N1C1CC2CC(C1)N(Cc1ccccc1)C2` (stereo not drawn) [Compound 12], at rat α4β2 nAChR, the “binding affinity at α4β2 nAChR (in words)” value is recorded as “completely abolished affinity”.
For `CN1C2C=C(c3cccnc3)CC1CCC2` (stereo not drawn) [Compound 8, 9-methyl-3-(pyridin-3-yl)-9-azabicyclo[3.3.1]non-2-ene], the “functional activity at α3β4 nAChR (in words)” value at α3β4 nAChR [2] (setting [3]) was “partial agonist activity”.
For the molecule `CCOC(=O)N1C2C=C(c3cccnc3)CC1CCC2` (stereo not drawn) [Compound 7], the “binding affinity at α4β2 nAChR (in words)” value at rat α4β2 nAChR is listed as “complete loss of binding affinity”. For the same molecule, at rat α3β4 nAChR, the “binding affinity at α3β4 nAChR (in words)” value is on record as “complete loss of binding affinity”.
For the molecule `Clc1ccc(C2CC3CCC2N3)cn1` (stereo not drawn) [Epibatidine, reference compound], at α3β4 nAChR [2], the “increase in intracellular Ca2+-induced fluorescence” value worked out at 1000 fold.
The term Ki denotes the equilibrium dissociation constant of an inhibitor or competing ligand from its target. A high value points to a looser hold on the target. On to `C1=C(c2cccnc2)CC2CC1CN2Cc1ccccc1` (stereo not drawn) [Compound 10, 6-benzyl-3-(pyridin-3-yl)-6-azabicyclo[3.2.1]oct-2-ene], for which the “functional activity at α4β2 nAChR (in words)” value on α4β2 nAChR is “partial agonist”. In addition, the values for the Ki at α7 nAChR, on rat α4β2 nAChR (binding affinity (Ki) α4β2) and on rat α3β4 nAChR were 424 nM, 1.95 ± 0.18 nM and 170 ± 47.9 nM, respectively. The “selectivity for α4β2 over α3β4 receptors” value on rat α4β2 nAChR is recorded as “about 100 fold”. The “selectivity for α4β2 over α7 nAChR” value on rat α4β2 nAChR is recorded as “greater than 200 fold”. In addition, the “functional activity at α3β4 nAChR (in words)” value at α3β4 nAChR [2] is given as “partial agonist”.
With `O=C1Cc2ccccc2N1C1CC2CCCC(C1)N2` (stereo not drawn) [Compound 6], the “functional activity at α3β4 nAChR (in words)” value at α3β4 nAChR [2] (setting [3]) was “antagonists”. For the same molecule, the “potency in reversing epibatidine-induced Ca2+ fluorescence” value at α3β4 nAChR [2] (FLIPR, α3β4 HEK cells) is “micromolar range”.
